Reference: ChEMBL document CHEMBL1201862, “PubChem BioAssay data set” (2004)
Activity calls are given as the source filed them.

Experiments:
[1] = biological target: Ras and Rab interactor 1/Tyrosine-protein kinase ABL1 (Homo sapiens, UniProt P00519+Q13671); format: functional;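 note: biochemical TR-FRET dose-response test measuring inhibition of binding between Rin1 and Abl proteins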
[2] = biological target: Adenosylmethionine-8-amino-7-oxononanoate aminotransferase (Mycobacterium tuberculosis, UniProt P9WQ81); test: Mycobacterium tuberculosis BioA enzyme inhibitor Measured in Biochemical System Using Plate Reader - 2163-02_Inhibitor_Dose_CherryPick_Activity.; format: functional, Mycobacterium tuberculosis UT205
[3] = ARNT/TACC3 interaction disruptors, potency, confirmation, biochemical, AlphaScreen, cherry-picked samples (AID 651703); format: functional, Homo sapiens;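 note: His-tagged ARNT PAS-B domain paired with GST-TACC3 E629A dimer coactivator fragment; potency of inhibitors that break up the complex and lower AlphaScreen signal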
[4] = biological target: T1, Interleukin-8 (Homo sapiens, UniProt P10145); test: Dose Response confirmation of uHTS small molecule hits for cystic fibrosis induced NFkb Inhibitors in a TNFa-induced IL8 counterscreen.; format: functional; settings: read-out: IC50_Mean
T1 sequence (P10145 whole entry): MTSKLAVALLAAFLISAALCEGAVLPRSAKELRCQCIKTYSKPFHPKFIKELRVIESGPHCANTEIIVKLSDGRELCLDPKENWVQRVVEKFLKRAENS

[5] = biological target: T1, Interleukin-8; test: Dose Response confirmation of uHTS small molecule hits for cystic fibrosis induced NFkb Inhibitors in a PAF-induced IL8 counterscreen.; format: functional; settings: read-out: IC50_Mean
[6] = biological target: T2, Apoptotic protease-activating factor 1 (Homo sapiens, UniProt O14727); test: SAR analysis of small molecule Activators of Apaf-1 in a Fluorescent assay.; format: functional; settings: read-out: EC50_Mean;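 note: caspase-3 cleavage of fluorogenic Rh110 DEVD substrate downstream of apoptosome activation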
T2 sequence (O14727 whole entry): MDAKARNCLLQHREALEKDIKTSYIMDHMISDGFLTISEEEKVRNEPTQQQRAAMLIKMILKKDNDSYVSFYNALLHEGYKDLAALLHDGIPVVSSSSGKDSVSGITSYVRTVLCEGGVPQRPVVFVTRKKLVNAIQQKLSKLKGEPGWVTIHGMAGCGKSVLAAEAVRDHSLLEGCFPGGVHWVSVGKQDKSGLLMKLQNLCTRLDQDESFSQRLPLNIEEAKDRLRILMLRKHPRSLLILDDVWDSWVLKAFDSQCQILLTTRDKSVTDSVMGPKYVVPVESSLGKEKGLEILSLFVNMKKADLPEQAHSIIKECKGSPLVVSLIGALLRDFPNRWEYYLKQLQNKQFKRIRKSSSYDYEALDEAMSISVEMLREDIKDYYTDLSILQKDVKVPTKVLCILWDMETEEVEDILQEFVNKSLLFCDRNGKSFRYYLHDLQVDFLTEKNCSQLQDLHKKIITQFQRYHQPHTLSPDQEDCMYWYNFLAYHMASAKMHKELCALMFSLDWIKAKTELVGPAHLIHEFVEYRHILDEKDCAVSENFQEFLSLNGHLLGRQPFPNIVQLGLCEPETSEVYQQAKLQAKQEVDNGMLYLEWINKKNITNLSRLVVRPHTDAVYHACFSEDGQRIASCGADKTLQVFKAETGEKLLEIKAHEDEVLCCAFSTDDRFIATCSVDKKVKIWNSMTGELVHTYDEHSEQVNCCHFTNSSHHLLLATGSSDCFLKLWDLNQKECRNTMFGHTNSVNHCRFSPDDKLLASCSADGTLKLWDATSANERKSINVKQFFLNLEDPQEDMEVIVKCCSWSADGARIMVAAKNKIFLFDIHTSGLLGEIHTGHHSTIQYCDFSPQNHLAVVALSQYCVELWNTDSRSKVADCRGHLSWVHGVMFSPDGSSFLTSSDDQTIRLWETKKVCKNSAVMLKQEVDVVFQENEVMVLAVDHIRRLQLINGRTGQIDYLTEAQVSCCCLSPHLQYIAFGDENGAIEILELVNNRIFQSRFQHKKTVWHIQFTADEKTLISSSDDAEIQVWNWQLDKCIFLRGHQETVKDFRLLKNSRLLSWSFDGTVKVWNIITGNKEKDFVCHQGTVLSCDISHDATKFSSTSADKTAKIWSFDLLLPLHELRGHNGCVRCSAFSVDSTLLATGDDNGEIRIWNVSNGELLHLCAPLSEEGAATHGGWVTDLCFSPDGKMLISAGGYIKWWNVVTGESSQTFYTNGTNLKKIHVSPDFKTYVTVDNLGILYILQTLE

[7] = biological target: T3, Diacylglycerol lipase-beta (Mus musculus, UniProt Q91WC9); test: Late stage assay provider results from the probe development effort to identify inhibitors of diacylglycerol lipase, beta (DAGLb): LCMS-based biochemical dose response assay.; format: functional
[8] = biological target: T3, Diacylglycerol lipase-beta; test: Late stage assay provider results from the probe development effort to identify inhibitors of diacylglycerol lipase, beta (DAGLb): fluorescence-based dose-response biochemical gel-based competitive Activity-Based Protein Profiling (ABPP) inhibition of DAGLb in vitro.; format: functional
[9] = biological target: T4, Polyadenylate-binding protein 1 (Homo sapiens, UniProt P11940); test: PABP1 MLLE–PAM2 interaction inhibitors, dose response, miRNA deadenylation inhibitor project, biochemical, fluorescence polarization, Cy5-PAM2 peptide, secondary (AID 602260); format: functional; settings: read-out: IC50_Mean
[10] = biological target: DNA (cytosine-5)-methyltransferase 1 (Homo sapiens, UniProt P26358); test: DNMT1 methyltransferase inhibitors, confirmation, biochemical, fluorescent molecular beacon (AID 602386); format: functional
[11] = biological target: T4, Polyadenylate-binding protein 1; test: PABP1 MLLE–PAM2 binding inhibitor potency, dose response, biochemical, fluorescence polarization, FITC-PAM2 peptide (AID 602259); format: functional; settings: read-out: IC50_Mean
[12] = test system: Streptococcus sp. 'group A'; test: growth inhibition of control SK(-) GAS strain, dose response, counter-screen for streptokinase expression inhibitor project, luminescence, kanamycin, BacTiterGlo, confirmation (AID 1900); format: functional, organism-based
[13] = biological target: T5, Streptokinase A (Streptococcus pyogenes serotype M1, UniProt P10520); test: S. pyogenes streptokinase expression inhibitors, potency, dose response, plasminogen activation absorbance, OD405 (AID 1914); format: functional, Streptococcus pyogenes M1 GAS;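 note: secreted streptokinase activity via plasminogen activation per viability signal from cell pellet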
T5 sequence (P10520 whole entry): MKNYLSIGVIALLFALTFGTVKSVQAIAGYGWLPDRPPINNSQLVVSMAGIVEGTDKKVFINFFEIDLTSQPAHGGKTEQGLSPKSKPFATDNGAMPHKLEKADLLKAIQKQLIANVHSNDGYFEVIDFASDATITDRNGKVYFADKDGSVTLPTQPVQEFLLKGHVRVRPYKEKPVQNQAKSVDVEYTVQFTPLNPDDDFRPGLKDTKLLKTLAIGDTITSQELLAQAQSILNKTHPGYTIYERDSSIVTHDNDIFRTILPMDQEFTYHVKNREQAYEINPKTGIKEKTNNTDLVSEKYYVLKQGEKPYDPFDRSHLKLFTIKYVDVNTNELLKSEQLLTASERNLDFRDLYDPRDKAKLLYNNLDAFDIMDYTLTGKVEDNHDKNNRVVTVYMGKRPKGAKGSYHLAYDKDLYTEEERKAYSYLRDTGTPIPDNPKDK

[14] = test system: Streptococcus; test: Group A Streptococcus viability loss, dose response, counter-screen for streptokinase expression inhibitor project, luminescence, BacTiterGlo (AID 1915); format: functional, organism-based;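 note: potency for reduction of bacterial viability or growth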
[15] = test system: CHO; test: cytotoxicity in TLR9-MyD88 CHO cells, dose response, cytotoxicity control for TLR9-MyD88 binding inhibitor project, cell-based, luminescence (AID 588339); format: functional, hamster; settings: Cricetulus griseus;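 note: CHO cells stably coexpressing TLR9 and MyD88 fusions from primary screen; compound exposure lasted 48 hours before viability readout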
[16] = biological target: T6, Replicative DNA helicase DnaB (Mycobacterium tuberculosis, UniProt P9WMR3); test: DnaB intein splicing inhibitors, dose response, biochemical, cell-free fluorescence (AID 449749); format: functional
T6 sequence (P9WMR3 whole entry): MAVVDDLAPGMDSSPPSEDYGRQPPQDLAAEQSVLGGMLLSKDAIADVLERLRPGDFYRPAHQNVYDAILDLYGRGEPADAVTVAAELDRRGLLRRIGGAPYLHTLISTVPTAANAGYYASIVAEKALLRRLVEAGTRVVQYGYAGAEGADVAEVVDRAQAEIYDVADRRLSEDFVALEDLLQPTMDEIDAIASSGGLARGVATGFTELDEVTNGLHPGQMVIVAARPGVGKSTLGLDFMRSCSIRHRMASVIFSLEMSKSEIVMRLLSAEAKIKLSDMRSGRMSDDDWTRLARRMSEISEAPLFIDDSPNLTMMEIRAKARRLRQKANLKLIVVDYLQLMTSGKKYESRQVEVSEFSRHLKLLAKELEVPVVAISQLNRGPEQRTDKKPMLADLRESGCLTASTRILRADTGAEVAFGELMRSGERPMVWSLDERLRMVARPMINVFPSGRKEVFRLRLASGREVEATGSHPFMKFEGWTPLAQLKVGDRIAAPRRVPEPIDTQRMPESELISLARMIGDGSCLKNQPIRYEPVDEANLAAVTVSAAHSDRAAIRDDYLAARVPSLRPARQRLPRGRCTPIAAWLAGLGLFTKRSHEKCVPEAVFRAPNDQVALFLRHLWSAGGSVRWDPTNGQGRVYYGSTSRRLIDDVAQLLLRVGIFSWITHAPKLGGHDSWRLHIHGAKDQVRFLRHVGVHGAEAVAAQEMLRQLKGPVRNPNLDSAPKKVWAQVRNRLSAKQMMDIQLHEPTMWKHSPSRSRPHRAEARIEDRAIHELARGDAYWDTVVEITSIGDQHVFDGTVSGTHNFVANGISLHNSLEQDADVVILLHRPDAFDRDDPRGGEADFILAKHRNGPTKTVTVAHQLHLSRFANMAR

[17] = biological target: Heat shock protein HSP 90-alpha (Homo sapiens, UniProt P07900); format: functional, organism-based
[18] = biological target: T7, Protein RecA (Mycobacterium tuberculosis, UniProt P9WHJ3); test: Fluorescence Cell-Free Homogeneous Dose Retest to Identify Inhibitors of RecA-Intein Splicing Activity. [Related pubchem assays (depositor defined):AID2097, AID2223, AID489010, AID492950]; format: functional
T7 sequence (P9WHJ3 whole entry): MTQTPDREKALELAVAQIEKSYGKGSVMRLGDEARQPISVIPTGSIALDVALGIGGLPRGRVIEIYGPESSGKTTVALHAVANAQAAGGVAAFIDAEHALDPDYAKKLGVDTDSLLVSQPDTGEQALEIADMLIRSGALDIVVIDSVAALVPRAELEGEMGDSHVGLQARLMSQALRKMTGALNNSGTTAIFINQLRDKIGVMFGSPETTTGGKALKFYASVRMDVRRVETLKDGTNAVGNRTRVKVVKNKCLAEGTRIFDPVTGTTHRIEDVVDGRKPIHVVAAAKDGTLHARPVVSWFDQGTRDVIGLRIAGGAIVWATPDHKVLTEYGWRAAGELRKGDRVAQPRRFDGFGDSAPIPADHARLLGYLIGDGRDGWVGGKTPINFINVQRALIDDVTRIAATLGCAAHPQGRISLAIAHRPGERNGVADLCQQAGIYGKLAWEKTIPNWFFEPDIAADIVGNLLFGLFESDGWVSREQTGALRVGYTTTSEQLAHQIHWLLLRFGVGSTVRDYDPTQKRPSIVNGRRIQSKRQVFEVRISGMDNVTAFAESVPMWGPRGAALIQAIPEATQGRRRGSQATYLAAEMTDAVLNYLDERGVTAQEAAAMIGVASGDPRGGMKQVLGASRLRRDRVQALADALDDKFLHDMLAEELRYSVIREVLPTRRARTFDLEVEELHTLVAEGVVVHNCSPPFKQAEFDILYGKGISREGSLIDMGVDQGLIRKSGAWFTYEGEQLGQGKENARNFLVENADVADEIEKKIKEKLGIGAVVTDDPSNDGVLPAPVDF

[19] = biological target: Beta Lactamase (Pseudomonas aeruginosa, UniProt Q932Y6); test: beta-lactamase reporter inhibitor potency, dose response, artefact control for TLR9-MyD88 binding inhibitor project, BLA reporter cells, FRET fluorescence (AID 588341); format: cell-based;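 note: cell based assay in CHO-K1 cells stably expressing beta-lactamase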
[20] = test system: INS1; test: beta cell apoptosis inhibitors, cytokine rescue, dose response, luminescence, retest (AID 449756); format: functional, cell-based; settings: Rattus norvegicus;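 note: cell death triggered by IL-1 beta plus TNF-alpha plus IFN-gamma mixture; protective hits raise ATP signal compared with cytokine alone wells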
[21] = Shn3 3'UTR reporter inhibitors, dose response, cell-based, Clone20 osteoblasts, firefly luciferase, cherry-picked (AID 624132); format: functional;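 note: firefly luciferase luminescence from reporter carrying the Shn3 3'UTR in osteoblasts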
[22] = biological target: ATP-binding cassette sub-family B member 6 (Homo sapiens, UniProt Q9NP58); test: ABCB6 transporter inhibitors, dose response, K562-ABCB6 cells, flow cytometry, cherry pick 1 (AID 623955); format: functional; settings: read-out: EC50_MICROM
[23] = HepG2 cell cytotoxicity, dose response, cytotoxicity control for Shn3 inhibitor project, CellTiter-Glo, cherry-picked (AID 624134); format: functional, cell-based
[24] = control 3'UTR Renilla luciferase suppression, dose response, counter-screen for Shn3 inhibitor project, cell-based, Clone20-Shn3RL, cherry-picked (AID 624133); format: functional

T3 sequence (Q91WC9 whole entry): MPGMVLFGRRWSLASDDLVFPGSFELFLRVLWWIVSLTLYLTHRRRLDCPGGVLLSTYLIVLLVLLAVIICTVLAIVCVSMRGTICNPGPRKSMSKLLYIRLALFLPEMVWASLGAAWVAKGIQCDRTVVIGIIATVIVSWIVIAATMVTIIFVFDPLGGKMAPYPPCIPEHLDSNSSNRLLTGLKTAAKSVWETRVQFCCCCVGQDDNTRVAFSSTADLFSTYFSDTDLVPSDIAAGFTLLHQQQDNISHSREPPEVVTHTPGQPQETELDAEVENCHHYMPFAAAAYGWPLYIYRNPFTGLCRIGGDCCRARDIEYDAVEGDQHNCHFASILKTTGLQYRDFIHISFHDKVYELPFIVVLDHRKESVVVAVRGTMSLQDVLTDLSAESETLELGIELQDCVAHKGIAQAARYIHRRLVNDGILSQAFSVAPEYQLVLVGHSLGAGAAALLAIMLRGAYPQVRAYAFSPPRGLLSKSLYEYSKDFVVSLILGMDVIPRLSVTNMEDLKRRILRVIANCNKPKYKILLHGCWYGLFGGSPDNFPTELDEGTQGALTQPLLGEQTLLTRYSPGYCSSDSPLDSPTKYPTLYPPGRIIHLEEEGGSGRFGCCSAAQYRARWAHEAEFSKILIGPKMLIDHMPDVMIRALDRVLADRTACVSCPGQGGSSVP
T4 sequence (P11940 whole entry): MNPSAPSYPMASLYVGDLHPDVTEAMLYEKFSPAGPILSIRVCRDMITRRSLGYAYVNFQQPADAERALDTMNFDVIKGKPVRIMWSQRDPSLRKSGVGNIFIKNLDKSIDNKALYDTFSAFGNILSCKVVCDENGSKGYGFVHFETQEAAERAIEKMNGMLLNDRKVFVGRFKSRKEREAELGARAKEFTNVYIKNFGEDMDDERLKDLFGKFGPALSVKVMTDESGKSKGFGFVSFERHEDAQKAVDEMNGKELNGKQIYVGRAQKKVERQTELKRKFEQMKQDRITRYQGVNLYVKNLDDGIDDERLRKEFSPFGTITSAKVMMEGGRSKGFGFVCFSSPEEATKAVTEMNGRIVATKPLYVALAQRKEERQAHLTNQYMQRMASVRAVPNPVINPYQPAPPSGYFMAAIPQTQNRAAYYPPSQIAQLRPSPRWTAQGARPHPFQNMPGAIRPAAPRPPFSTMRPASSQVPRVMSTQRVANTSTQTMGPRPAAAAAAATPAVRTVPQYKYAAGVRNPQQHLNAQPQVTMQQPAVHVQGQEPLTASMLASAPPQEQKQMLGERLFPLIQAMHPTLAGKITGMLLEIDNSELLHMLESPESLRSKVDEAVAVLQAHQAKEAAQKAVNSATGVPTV
Chain of Adenosylmethionine-8-amino-7-oxononanoate aminotransferase (P9WQ81 whole entry, the tested form may be a part): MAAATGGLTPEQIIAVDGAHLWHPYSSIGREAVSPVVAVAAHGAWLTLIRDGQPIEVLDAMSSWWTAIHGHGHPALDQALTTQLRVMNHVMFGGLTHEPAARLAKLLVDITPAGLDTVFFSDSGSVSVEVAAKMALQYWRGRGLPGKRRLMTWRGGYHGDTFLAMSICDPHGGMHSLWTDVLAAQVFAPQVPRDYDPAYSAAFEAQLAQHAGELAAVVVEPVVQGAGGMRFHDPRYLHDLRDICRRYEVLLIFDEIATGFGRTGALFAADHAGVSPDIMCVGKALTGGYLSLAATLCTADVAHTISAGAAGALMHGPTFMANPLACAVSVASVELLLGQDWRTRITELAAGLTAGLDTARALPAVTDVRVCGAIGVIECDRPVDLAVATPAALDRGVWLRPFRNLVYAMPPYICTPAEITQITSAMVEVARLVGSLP
Chain of Ras and Rab interactor 1/Tyrosine-protein kinase ABL1 (P00519 whole entry): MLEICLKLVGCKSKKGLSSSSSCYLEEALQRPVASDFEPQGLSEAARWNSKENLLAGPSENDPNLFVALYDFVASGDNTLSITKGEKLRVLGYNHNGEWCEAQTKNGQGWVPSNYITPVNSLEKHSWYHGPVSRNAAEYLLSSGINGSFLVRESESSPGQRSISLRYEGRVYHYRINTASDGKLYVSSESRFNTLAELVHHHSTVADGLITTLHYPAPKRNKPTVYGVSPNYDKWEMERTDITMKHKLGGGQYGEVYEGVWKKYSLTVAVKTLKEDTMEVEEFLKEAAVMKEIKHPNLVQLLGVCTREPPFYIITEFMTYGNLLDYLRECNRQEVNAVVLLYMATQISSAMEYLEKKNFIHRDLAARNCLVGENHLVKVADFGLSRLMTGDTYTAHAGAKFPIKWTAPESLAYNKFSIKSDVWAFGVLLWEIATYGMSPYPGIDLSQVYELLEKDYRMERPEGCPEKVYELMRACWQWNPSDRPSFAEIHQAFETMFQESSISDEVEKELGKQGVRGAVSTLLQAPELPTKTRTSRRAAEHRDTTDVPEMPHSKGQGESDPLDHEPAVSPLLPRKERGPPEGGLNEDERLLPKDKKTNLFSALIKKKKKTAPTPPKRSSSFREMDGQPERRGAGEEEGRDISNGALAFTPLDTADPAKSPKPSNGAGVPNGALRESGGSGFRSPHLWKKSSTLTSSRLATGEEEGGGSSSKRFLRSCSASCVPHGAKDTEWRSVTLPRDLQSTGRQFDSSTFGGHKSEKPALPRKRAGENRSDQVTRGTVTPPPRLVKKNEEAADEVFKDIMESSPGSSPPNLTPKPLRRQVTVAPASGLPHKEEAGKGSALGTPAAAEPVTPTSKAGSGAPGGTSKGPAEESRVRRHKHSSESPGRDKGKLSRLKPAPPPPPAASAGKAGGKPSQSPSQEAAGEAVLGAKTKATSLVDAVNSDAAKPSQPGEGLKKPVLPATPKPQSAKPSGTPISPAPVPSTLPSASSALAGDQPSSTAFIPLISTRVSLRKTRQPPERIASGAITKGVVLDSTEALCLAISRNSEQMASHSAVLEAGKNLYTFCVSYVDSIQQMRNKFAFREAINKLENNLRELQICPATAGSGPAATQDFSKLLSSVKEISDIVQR
Chain of Ras and Rab interactor 1/Tyrosine-protein kinase ABL1 (Q13671 whole entry): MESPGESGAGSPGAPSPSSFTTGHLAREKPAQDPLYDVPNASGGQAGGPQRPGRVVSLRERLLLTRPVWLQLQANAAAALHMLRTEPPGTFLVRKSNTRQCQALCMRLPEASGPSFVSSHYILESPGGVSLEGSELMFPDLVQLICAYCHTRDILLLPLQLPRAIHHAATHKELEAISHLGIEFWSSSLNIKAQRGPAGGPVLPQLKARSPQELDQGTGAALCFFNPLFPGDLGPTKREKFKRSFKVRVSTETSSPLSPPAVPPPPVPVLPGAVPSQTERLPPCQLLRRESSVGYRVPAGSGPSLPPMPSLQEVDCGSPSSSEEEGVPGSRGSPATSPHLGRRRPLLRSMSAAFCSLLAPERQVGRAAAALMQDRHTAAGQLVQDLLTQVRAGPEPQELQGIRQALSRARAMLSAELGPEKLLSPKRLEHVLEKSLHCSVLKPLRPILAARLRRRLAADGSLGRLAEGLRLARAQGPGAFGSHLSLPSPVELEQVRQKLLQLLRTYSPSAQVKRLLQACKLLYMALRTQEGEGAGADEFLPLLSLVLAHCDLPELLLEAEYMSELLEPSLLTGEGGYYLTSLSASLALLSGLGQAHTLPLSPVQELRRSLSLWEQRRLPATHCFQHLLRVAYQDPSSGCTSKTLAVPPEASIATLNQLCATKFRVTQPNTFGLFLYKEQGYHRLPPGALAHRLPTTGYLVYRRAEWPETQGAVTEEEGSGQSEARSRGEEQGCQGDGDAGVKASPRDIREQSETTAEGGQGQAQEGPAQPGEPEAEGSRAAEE
Chain of Beta Lactamase (Q932Y6 whole entry): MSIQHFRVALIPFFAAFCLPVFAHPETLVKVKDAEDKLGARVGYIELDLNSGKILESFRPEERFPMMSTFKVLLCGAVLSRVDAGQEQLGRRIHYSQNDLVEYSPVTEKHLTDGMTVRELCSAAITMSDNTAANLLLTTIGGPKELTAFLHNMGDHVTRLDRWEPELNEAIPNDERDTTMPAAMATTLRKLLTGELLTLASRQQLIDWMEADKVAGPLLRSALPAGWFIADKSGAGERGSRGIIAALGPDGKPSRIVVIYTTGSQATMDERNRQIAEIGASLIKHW
Chain of ATP-binding cassette sub-family B member 6 (Q9NP58 whole entry): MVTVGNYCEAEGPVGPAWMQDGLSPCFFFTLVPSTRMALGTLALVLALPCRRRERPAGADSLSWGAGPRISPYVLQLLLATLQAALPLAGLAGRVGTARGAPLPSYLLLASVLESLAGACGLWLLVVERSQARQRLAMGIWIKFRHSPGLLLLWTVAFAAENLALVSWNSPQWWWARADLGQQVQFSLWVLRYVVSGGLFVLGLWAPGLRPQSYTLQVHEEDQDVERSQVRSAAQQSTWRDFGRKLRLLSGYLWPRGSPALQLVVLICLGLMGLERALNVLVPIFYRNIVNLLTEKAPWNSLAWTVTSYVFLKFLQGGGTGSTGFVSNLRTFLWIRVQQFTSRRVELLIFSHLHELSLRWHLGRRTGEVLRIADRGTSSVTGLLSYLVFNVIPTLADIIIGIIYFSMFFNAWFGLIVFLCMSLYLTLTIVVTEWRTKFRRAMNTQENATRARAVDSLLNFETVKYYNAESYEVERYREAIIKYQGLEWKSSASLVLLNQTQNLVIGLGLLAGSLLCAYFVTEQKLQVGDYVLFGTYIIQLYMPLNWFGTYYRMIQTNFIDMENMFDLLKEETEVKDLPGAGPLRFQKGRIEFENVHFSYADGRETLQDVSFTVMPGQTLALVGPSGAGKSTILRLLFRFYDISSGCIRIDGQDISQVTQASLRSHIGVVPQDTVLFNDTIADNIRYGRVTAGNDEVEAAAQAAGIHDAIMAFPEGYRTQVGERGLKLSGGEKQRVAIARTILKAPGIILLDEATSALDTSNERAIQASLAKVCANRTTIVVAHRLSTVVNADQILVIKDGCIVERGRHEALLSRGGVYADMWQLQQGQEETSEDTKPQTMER

## O=C(CC1SCCNC1=O)Nc1cc(Cl)cc(Cl)c1 (centres undefined)
[1]
  IC50: 26.4 µM (inactive)

## O=C(N[C@H]1CC[C@@H](CCn2cc(-c3cccnc3)nn2)O[C@H]1CO)c1ccccc1F
[2]
  AC50: 12.3 µM (active)

## COC(=O)C(CC#Cc1ccc2c(c1)[C@]1(C(=O)N2)[C@H](c2ccc(OCCO)cc2)N2[C@H](c3ccccc3)[C@H](c3ccccc3)OC(=O)[C@H]2[C@@H]1C(=O)N1CCCCCCC1)C(=O)OC
[3]
  AC50: 126 µM (active)

## CC1=C(C(=O)OCc2ccc3c(c2)OCO3)C(c2ccc(O)c([N+](=O)[O-])c2)NC(=O)N1 (centres undefined)
[4]
  IC50: 39.8 µM (inactive)
[5]
  IC50: 63.7 µM (inactive)

## O=C(O)CC(CCc1ccccc1)NC(=O)c1cccs1 (centres undefined)
[6]
  EC50: > 100 µM (inactive)

## O=C(N1CCCCC1Cc1ccccc1)n1cc(-c2ccc(-c3ccccc3)cc2)nn1 (centres undefined)
[7]
  IC50: 0.1 µM (active)
[8]
  IC50: 0.043 µM (active)

## O=C1c2sccc2-c2cccc3cccc1c23
[9]
  IC50: > 66 µM (inactive)
[10]
  IC50: 1.02 µM (active)
[11]
  IC50: 25.5 µM (inactive)

## COC(=O)c1ccc(NC(=O)c2nc(S(=O)(=O)Cc3cccc(C)c3)ncc2Cl)cc1
[12]
  EC50: 0.941 µM (active)
[13]
  EC50: > 150 µM (not active)
[14]
  EC50: 3.07 µM (active)
[15]
  IC50: 2.53 µM (active)
[16]
  AC50: 0.389 µM (active)
[17]
  AC50: 1.26 µM (active)
[18]
  EC50: 0.228 µM (active)
[19]
  IC50: 10.7 µM (inactive)
[20]
  AC50: 7.28 µM (active)
[21]
  AC50: 1.35 µM (active)
[22]
  EC50: 44.2 µM (active)
[23]
  AC50: 33.5 µM (active)
[24]
  AC50: 5.82 µM (active)
